pIC50: −log10 of the molar value. Where a SMILES comes first, the peptide text is derived from it.
Columns and labels:
Chymase, from human skin = target: T1, Chymase, from human skin (Homo sapiens, UniProt P23946)
T1 sequence (P23946 22-247): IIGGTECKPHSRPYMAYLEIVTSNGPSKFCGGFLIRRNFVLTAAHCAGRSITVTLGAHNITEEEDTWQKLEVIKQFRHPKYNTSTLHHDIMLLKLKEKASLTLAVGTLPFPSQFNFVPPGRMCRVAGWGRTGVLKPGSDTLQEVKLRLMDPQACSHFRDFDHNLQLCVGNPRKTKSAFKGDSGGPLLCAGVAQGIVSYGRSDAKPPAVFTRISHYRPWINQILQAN

[1] = target: Coagulation Factor Xa, from uman plasma (Homo sapiens, UniProt P00742)
Chain of Coagulation Factor Xa, from uman plasma (P00742 235-488 limits assumed): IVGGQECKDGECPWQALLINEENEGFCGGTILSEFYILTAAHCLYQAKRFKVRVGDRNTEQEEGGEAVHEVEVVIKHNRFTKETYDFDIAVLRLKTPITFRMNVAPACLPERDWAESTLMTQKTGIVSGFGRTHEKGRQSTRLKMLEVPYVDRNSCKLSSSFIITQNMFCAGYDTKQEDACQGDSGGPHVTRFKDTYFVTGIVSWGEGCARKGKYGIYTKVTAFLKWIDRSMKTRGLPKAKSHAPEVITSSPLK
Chain of Coagulation Factor Xa, from uman plasma (P00742 41-179 limits assumed): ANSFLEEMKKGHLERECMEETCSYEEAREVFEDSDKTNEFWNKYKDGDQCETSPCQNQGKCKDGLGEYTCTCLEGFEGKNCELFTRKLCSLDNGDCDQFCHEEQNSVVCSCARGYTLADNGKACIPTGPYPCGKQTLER

HELA cells (Acc57) = assay: Cytotoxicity assay (MTT reduction), HELA cells; format: cell-based; conditions: Hela cells
How it was run: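 HeLa cells were grown for 24 h, then exposed to peptides at 12.5, 25 and 50 μM in triplicate for 48 h at 37 °C. MTT reduction was read at 595 nm and growth % calculated relative to time-zero wells. LC50 interpolated by linear trend at −50% growth, GI50 at 50%.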

[2] = target: T2, Elastase from human neutrophils (Homo sapiens, UniProt P08246); assay: Enzymatic assay, elastase; conditions: Elastase IC50
T2 sequence (P08246 30-267): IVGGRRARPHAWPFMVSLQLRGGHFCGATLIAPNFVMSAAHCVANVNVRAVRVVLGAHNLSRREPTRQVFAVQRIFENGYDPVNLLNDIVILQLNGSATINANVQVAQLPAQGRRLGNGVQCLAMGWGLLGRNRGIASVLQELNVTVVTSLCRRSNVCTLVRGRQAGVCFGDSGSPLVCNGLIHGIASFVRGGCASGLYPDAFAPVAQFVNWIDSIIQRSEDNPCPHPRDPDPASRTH

[3] = target: Urokinase from human urine (Homo sapiens, UniProt P00749)
[4] = target: T3, CathepsinG, from human neutrophils (Homo sapiens, UniProt P08311); assay: Enzymatic assay, cathepsin G; conditions: Cathepsin G IC50
T3 sequence (P08311 21-244): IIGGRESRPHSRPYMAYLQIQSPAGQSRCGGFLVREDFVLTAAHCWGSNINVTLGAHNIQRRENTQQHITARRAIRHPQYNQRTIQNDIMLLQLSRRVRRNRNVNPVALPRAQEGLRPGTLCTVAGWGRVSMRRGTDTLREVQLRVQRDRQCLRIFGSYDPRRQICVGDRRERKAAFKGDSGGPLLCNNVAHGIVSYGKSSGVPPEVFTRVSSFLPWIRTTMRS

[5] = target: T4, Chymotrypsin, from human pancreas (Homo sapiens, UniProt P17538)
T4 sequence (P17538 19-263): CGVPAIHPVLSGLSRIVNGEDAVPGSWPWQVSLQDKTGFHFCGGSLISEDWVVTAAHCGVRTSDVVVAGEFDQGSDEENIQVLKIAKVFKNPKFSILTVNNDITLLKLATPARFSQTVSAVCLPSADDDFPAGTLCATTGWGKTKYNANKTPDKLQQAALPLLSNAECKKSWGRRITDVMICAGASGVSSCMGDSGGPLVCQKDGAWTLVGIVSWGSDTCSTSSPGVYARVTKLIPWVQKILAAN

[6] = target: Trypsin, from human pancreas (Homo sapiens, UniProt P07477)
[7] = target: Thrombin, from Human Plasma (Homo sapiens, UniProt P00734)
[8] = tested on: Tryptase, from human lung; assay: Enzymatic assay, tryptase; conditions: at 100 μM
[9] = format: in vitro ADME; conditions: 10 µM
Procedure: 405 μl of plasma/albumin solution were placed in a polypropylene (PP) tube and spiked with 45 μl of compound from a […] solution B, derived from 135 μl of PBS and 15 μl of 1 mM peptide in PBS, pH 7.4. 150 μl aliquots were transferred into individual wells of the 10 kDa filter plate (Millipore MAPPB 1010 Biomax membrane). For “0 minutes controls”: 270 μl of PBS were placed in a PP tube and 30 μl of stock solution B was added and vortexed. 150 μl of control solution were placed into one well of the filter plate and served as “filtered control”.
Further 150 μl of control solution were placed directly into a receiver well (reserved for filtrate) and served as “not-filtered control”. The entire plate including evaporation lid was incubated for 60 min at 37° C. Plasma samples (rat plasma: Harlan Sera lab UK, human plasma: Blutspendezentrum Zürich) were centrifuged at least for 2 h at 4300 rpm (3500 g) and 15° C. in order to yield 100 filtrate. For “serum albumin”-samples (freshly prepared human albumin: Sigma A-4327, rat albumin: Sigma A-6272, all at 40 mg/ml concentration in PBS) approximately 1 hour of centrifugation was sufficient. The filtrates in the receiver PP plate were analysed by LC/MS as follower follows: Column: Jupiter C18 (Phenomenex), mobile phases: (A) 0.1% formic acid in water and (B) acetonitrile, gradient: 5%-100% (B) in 2 minutes, electrospray ionization, MRM detection (triple quadrupole). The peak areas were determined and triplicate values were averaged. The binding was expressed in percent of the (filtered and not-filtered time point 0 min) control 1 and 2 by: 100−(100×T60/T0). The average from these values was then calculated.

[10] = tested on: human red blood cells (hRBC); assay: Hemolysis
Procedure: The peptides were tested for their hemolytic activity against human red blood cells (hRBC). Fresh hRBC were washed three times with phosphate buffered saline (PBS) by centrifugation for 10 min at 2000×g. Peptides at a concentration of 100 μM were incubated with 20% v/v hRBC for 1 hour at 37° C. The final erythrocyte concentration was approximately 0.9×10^9 cells per ml. A value of 0% and, respectively, 100% cell lysis was determined by incubation of the hRBC in the presence of PBS alone and, respectively, 0.1% Triton X-100 in H2O. […] The 100% lysis value (OD540H20) gave an OD540 of approximately 1.3-1.8. Percent hemolysis was calculated as follows: (OD540peptide/OD540H20)×100%.

[11] = target: T4, Chymotrypsin, from human pancreas; assay: Enzymatic assay, chymotrypsin
[12] = target: T3, CathepsinG, from human neutrophils

SMILES	Chymase at 100 μM % (Chymase, from human skin) [%]	FXa at 100 μM % [1] [%]	Cytotoxicity LC50/GI50 Hela cells (HELA cells (Acc57)) [nM]	pIC50 [2]	Urokinase at 100 μM % [3] [%]	pIC50 [4]	Chymotrypsin at 100 μM % [5] [%]	Trypsin at 100 μM % [6] [%]	Thrombin at 100 μM % [7] [%]	Tryptase at 100 μM % [8] [%]	Stability human Plasma t1/2 [9] [h]	Stability rat Plasma t1/2 [9] [h]	Hemolysis at 100 μM % [10] [%]	pIC50 [11]	Cathepsin G at 100 μM % [12] [at 100%]
CC[C@H](C)[C@@H]1NC(=O)[C@@H]2CCCN2C(=O)[C@@H]2CCCN2C(=O)[C@H](CC(=O)O)NC(=O)[C@H](CO)NC(=O)[C@H](CCCCN)NC(=O)[C@H]([C@@H](C)O)NC(=O)[C@@H]2CSSC[C@H](NC1=O)C(=O)N[C@@H](CCCNC(=N)N)C(=O)N1CCC[C@@H]1C(=O)N1CCC[C@H]1C(=O)N[C@@H](C1CCCCC1)C(=O)N2 [Ex. 12] (HELM PEPTIDE1{[O=C([C@@H](N[*:1])C1CCCCC1)[*:2]].C.T.K.S.D.P.P.I.C.R.[dP].P}$PEPTIDE1,PEPTIDE1,2:R3-10:R3|PEPTIDE1,PEPTIDE1,1:R1-13:R2$$$V2.0)	12	5	59300	4.43	12	7.05	28	97	11	59.3	–	–	–	–	–
CCCC[C@@H]1NC(=O)[C@H]([C@@H](C)O)NC(=O)[C@@H]2CSSC[C@H](NC(=O)[C@H]([C@@H](C)CC)NC(=O)[C@@H]3CCCN3C(=O)[C@@H]3CCCN3C(=O)[C@H](CC(=O)O)NC(=O)[C@H](CO)NC1=O)C(=O)N[C@@H](CCCNC(=N)N)C(=O)N1CCC[C@@H]1C(=O)N1CCC[C@H]1C(=O)N[C@@H]([C@@H](C)CC)C(=O)N2 [Ex. 22] (HELM PEPTIDE1{I.C.T.[Nle].S.D.P.P.I.C.R.[dP].P}$PEPTIDE1,PEPTIDE1,2:R3-10:R3|PEPTIDE1,PEPTIDE1,1:R1-13:R2$$$V2.0)	98.8	–	8000	< 4.00	5.7	7.26	0	84.	–	3.8	5	5	0	–	–
CCCC[C@@H]1NC(=O)[C@@H]2CCCN2C(=O)[C@H]2CCCN2C(=O)[C@H](Cc2ccc(O)cc2)NC(=O)[C@H]([C@@H](C)O)NC(=O)[C@H](CCC(N)=O)NC(=O)[C@@H]2CCCN2C(=O)[C@@H]2CCCN2C(=O)[C@H]([C@@H](C)CC)NC(=O)[C@H](CO)NC(=O)[C@H](C)NC(=O)[C@H]([C@@H](C)O)NC(=O)[C@H](CCC(N)=O)NC1=O [Ex. 109] (HELM PEPTIDE1{[Nle].Q.T.A.S.I.P.P.Q.T.Y.[dP].P}$PEPTIDE1,PEPTIDE1,1:R1-13:R2$$$V2.0)	0.1	5.6	–	7.48	–	–	–	0	0	–	–	–	–	7.86	54.1

Source: patent US8658604B2, “Template-fixed beta-hairpin peptidomimetics with protease inhibitory activity” (Polyphor Ltd, priority 2005, dated 2014)
